Assay results reported in patent US10501470B2, “Use of asarinin in preparation of medicines for treating various coughs” (priority 2017, dated 2019).

Test system: cough of guinea pigs induced by citric acid
Assay: citric acid induced guinea pig cough model
Format: in vivo, Hartley guinea pigs
Details: for Cough Time (Number of Times) / Cough Incubation Period: once daily for 3 days, x±s, n=8; for Cough Time (Number of Times): cough times within 6 min after citric acid atomization; for Cough Incubation Period: within 6 min after citric acid atomization; for Antitussive Ratio: (N(blank control)-N(administration group))/N(blank control)x100%
Experimental: Experimental animals: 250-350 g of common level Hartley guinea pigs, including half males and half females are provided by Guangdong Medical Experimental Animal Center, wherein the number of the animal certificate is SCXK (Yue) 2008-0002.
Reagents and instruments: citric acid monohydrate (Guangzhou Chemical Reagent Factory, batch number: 20121001-2), wherein 0.8 M of citric acid solution is prepared by adding normal saline into citric acid monohydrate when in use; an animal noninvasive Buxco lung function detecting system (Buxco Company of America); an Aeroneb Pro atomizer (Aerogen (Ireland) Co., Ltd.); and a gavage needle (Guangdong Medical Experimental Animal Center).
A citric acid induced guinea pig cough model is adopted for efficacy evaluation. 112 Hartley guinea pigs are put in a 6 L plethysmograph of the animal noninvasive Buxco lung function detecting system one by one; the air velocity of a drift indicator is 2.5 L/min; 0.8 M of atomized aerosol of citric acid ultrapure aqueous solution is led for 1 min by the Aeroneb Pro atomizer; the average diameter of the atomized granules is […]; observation is carried out for 5 min; the sound of cough is recorded and amplified by an indoor microphone; sound waves are analyzed by Biosystem XA software; and computer software is used for processing sound data and recording cough situations. A trained observer observes whether a cough response exists or not, records the cough times within 6 min since atomization and selects the guinea pigs with more than 10 cough times as qualified animals for tests.
56 Hartley guinea pigs qualified by screening, including half males and half females, are randomly divided into 7 groups; 1 mL/100 g of normal saline is provided to a blank control group; a corresponding solvent (Tween-80 aqueous solution with 5% volume concentration) with equal volume is provided to a solvent group; 30 mg/kg of codeine phosphate with equal volume is provided to a positive drug group, asarinin (30 mg/kg, 60 mg/kg and 120 mg/kg of samples in embodiment 1) and total volatile oil of asarum (200 mg/kg of samples in embodiment 1) with equal volume are provided to each of administration groups; administration is carried out one time every day for successive 3 days. A citric acid atomization simulation test is carried out in the animal noninvasive Buxco lung function detecting system within 2 h after last administration (atomization conditions are described above); the cough times (N) and the cough incubation periods within 6 min are recorded; and the antitussive ratios of all the administration groups are calculated by a formula: antitussive ratio=(N(blank control)−N(administration group))/N(blank control)×100%.
The data are expressed by x±s, and a one-way analysis of variance is carried out on parameters of all the groups by IBM SPSS Statistics 19.0 software.

Row | Compound | Cough Time (Number of Times) (30 mg/kg) | Cough Incubation Period (30 mg/kg) [S] | Antitussive Ratio (30 mg/kg) [%] | Cough Time (Number of Times) (60 mg/kg) | Cough Incubation Period (60 mg/kg) [S] | Antitussive Ratio (60 mg/kg) [%] | Cough Time (Number of Times) (120 mg/kg) | Cough Incubation Period (120 mg/kg) [S] | Antitussive Ratio (120 mg/kg) [%]
1 | c1cc2c(cc1C1OCC3C1CO[C@H]3c1ccc3c(c1)OCO3)OCO2 (stereo in doubt) [Asarinin, 5,5′-[(1R,3aR,4S,6aR)-tetrahydro-1H,3H-furo[3,4-c]furan-1,4-diyl]bis-1,3-Benzodioxole] | 16.3 ± 2.2 Number of Times | 98.5 ± 9.5 | 39.2 | 13.2 ± 2.1 Number of Times | 94.2 ± 13.6 | 50.7 | 12.6 ± 1.9 Number of Times | 127.3 ± 24.8 | 53.0
2 | COc1ccc2c3c1O[C@H]1[C@@H](O)C=C[C@H]4[C@@H](C2)N(C)CC[C@@]341 [Codeine Phosphate, reference compound] | 12.0 ± 2.3 Number of Times | 130.0 ± 32.4 | 55.2 |  |  |  |  |  | 
